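Method: 48-hour compound exposure of cells in 96-well plates, five concentrations, linear interpolation of endpoints. GI50 is the concentration that inhibits growth by half. TGI marks complete inhibition of growth.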
What was measured:
Experiment in all cases: DTP human tumour cell line panel, 48 h
[1] = system: NCI/ADR-RES ovarian
[2] = system: SNB-75 CNS
[3] = system: UO-31 renal
[4] = system: TK-10 renal
[5] = system: SF-268 CNS
[6] = system: SK-MEL-2 melanoma
[7] = system: IGROV1 ovarian
[8] = system: SR leukemia
[9] = system: CCRF-CEM leukemia
[10] = system: NCI-H23 lung
[11] = system: A498 renal
[12] = system: NCI-H226 lung
[13] = system: NCI-H460 lung
[14] = system: HOP-62 NSCLC
[15] = system: RXF 393 renal
[16] = system: T-47D breast
[17] = system: OVCAR-3 ovarian
[18] = system: SK-MEL-5 melanoma
[19] = system: SW-620 colon
[20] = system: MALME-3M melanoma
[21] = system: HL-60(TB) leukemia
[22] = system: MDA-MB-231 breast
[23] = system: CAKI-1 renal
[24] = system: A549 NSCLC
[25] = system: HCC-2998 colon
[26] = system: SNB-19 CNS
[27] = system: NCI-H522 lung
[28] = system: HCT-116 colon
[29] = system: UACC-257 melanoma
[30] = system: M14 melanoma
[31] = system: SF-295 CNS
[32] = system: DU-145 prostate
[33] = system: UACC-62 melanoma
[34] = system: U251 CNS
[35] = system: RPMI-8226 leukemia
[36] = system: ACHN renal
[37] = system: PC-3 prostate
[38] = system: SN12C renal
[39] = system: OVCAR-5 ovarian
[40] = system: OVCAR-8 ovarian
[41] = system: HCT-15 colon
[42] = system: MCF7 breast
[43] = system: SK-MEL-28 melanoma
[44] = system: HS 578T breast
[45] = system: LOX IMVI melanoma
[46] = system: KM12 colon
[47] = system: MDA-MB-435
[48] = system: K-562 leukemia
[49] = system: MOLT-4 leukemia
[50] = system: OVCAR-4 ovarian
[51] = system: 786-0 renal
[52] = system: SF-539 CNS
[53] = system: COLO 205 colon
[54] = system: BT-549 breast
[55] = system: SK-OV-3 ovarian
[56] = system: HT29 colon

## Cn1cc(C2=C(c3cn(CCCO)c4ccccc34)C(=O)NC2=O)c2ccccc21
[1]
  GI50: 7.23 µM
  TGI: > 22.8 µM
[2]
  GI50: 3.11 µM
  TGI: 12.3 µM
[3]
  GI50: 4.04 µM
  TGI: 14 µM
[4]
  GI50: 3.96 µM
  TGI: 13.3 µM
[5]
  GI50: 6.11 µM
  TGI: 17.6 µM
[6]
  GI50: 1.79 µM
  TGI: 4.72 µM
[7]
  GI50: 6.04 µM
  TGI: 16.6 µM
[8]
  GI50: 2.71 µM
  TGI: > 19.1 µM
[9]
  GI50: 3.01 µM
  TGI: 18.2 µM
[10]
  GI50: 5.37 µM
  TGI: 18 µM
[11]
  GI50: 5.45 µM
  TGI: 13.9 µM
[12]
  GI50: 5.05 µM
  TGI: 19.1 µM
[13]
  GI50: 4.9 µM
  TGI: 12.5 µM
[14]
  GI50: 7 µM
  TGI: 19.5 µM
[15]
  GI50: 3.87 µM
  TGI: 9.56 µM
[16]
  GI50: 4.94 µM
  TGI: 18.6 µM
[17]
  GI50: 6 µM
  TGI: > 19.5 µM
[18]
  GI50: 4.2 µM
  TGI: 10.8 µM
[19]
  GI50: 7.11 µM
  TGI: > 25 µM
[20]
  GI50: 8.52 µM
  TGI: 21.3 µM
[21]
  GI50: 6.1 µM
  TGI: 15.3 µM
[22]
  GI50: 9.38 µM
  TGI: > 25 µM
[23]
  GI50: 3.93 µM
  TGI: 16.9 µM
[24]
  GI50: 5.68 µM
  TGI: 17.5 µM
[25]
  GI50: 7.83 µM
  TGI: > 25 µM
[26]
  GI50: 9.36 µM
  TGI: > 25 µM
[27]
  GI50: 3.47 µM
  TGI: 13.2 µM
[28]
  GI50: 4.62 µM
  TGI: > 17.7 µM
[29]
  GI50: 8.15 µM
  TGI: 24.7 µM
[30]
  GI50: 7.29 µM
  TGI: > 25 µM
[31]
  GI50: 5.11 µM
  TGI: > 17 µM
[32]
  GI50: 6.97 µM
  TGI: > 22.5 µM
[33]
  GI50: 5.56 µM
  TGI: 12.3 µM
[34]
  GI50: 6.15 µM
  TGI: 19.3 µM
[35]
  GI50: 5.97 µM
  TGI: 15 µM
[36]
  GI50: 4.99 µM
  TGI: 19.8 µM
[37]
  GI50: 6.8 µM
  TGI: 24.6 µM
[38]
  GI50: 5.25 µM
  TGI: > 25 µM
[39]
  GI50: 11.4 µM
  TGI: > 25 µM
[40]
  GI50: 6.4 µM
  TGI: > 21.1 µM
[41]
  GI50: 3.33 µM
  TGI: > 25 µM
[42]
  GI50: 2.66 µM
  TGI: 17.4 µM
[43]
  GI50: 6.49 µM
  TGI: 18.8 µM
[44]
  GI50: 5.35 µM
  TGI: 17.3 µM
[45]
  GI50: 6.12 µM
  TGI: > 21.4 µM
[46]
  GI50: 1.77 µM
  TGI: 16.8 µM
[47]
  GI50: 2.34 µM
  TGI: > 25 µM
[48]
  GI50: 5.61 µM
  TGI: > 25 µM
[49]
  GI50: 6.05 µM
  TGI: > 20.7 µM
[50]
  GI50: 4.63 µM
  TGI: > 20.7 µM
[51]
  GI50: 7.03 µM
  TGI: > 22.8 µM
[52]
  GI50: 4.57 µM
  TGI: 11.4 µM
[53]
  GI50: 5.39 µM
  TGI: 16 µM
[54]
  GI50: 3.76 µM
  TGI: 11.5 µM
[55]
  GI50: 4.29 µM
  TGI: > 22.1 µM
[56]
  GI50: 5.4 µM
  TGI: > 19.3 µM

From PubChem BioAssay (NCI)
